{"source": "patent US9814707B2", "about": "“Cancer stem cell proliferation inhibitor and intracellular active oxygen accumulation inducer” (Keio University, priority 2014, dated 2017)", "key": {"[1]": {"system": "HSC2, HSC3, HSC4, and OSC19 cells", "experiment": "Sensitivity of squamous cell carcinoma cell lines to cisplatin, cell viability by Celltiter-Glo after 72 hours", "type": "cell-based", "conditions": "OSC19 compared with HSC2, HSC3, and HSC4, cisplatin 1, 2.5, 5, 7.5 μM, FIG. 3", "description": "Next, GSH levels in the cells were measured using GSH-Glo™ Glutathione Assay (Promega) to examine the correlation with the CD44v expression. Furthermore, in order to examine the sensitivity of the cell lines in which CD44 expression is suppressed to cisplatin, each cell line was seeded onto a 96-well plate at 2000 cells/well and cisplatin was added the following day at concentrations of 1, 2.5, 5, and 7.5 μM. After 72 hours, the cell viability was measured using Celltiter-Glo (Promega)."}, "OSC19 and HSC4 cells [2]": {"system": "OSC19 and HSC4 cells", "experiment": "Intracellular reactive oxygen species by H2DCFDA staining with pimozide or sulfasalazine", "type": "cell-based", "conditions": "24 hours, FIG. 11; for inductive effect on intracellular accumulation of reactive oxygen species, OSC19 versus HSC4: pimozide 1, 3, 10 μM, sulfasalazine 300 μM", "description": "OSC19 and HSC4 cells were seeded onto 24-well glass-bottomed plate at 1×10^5 cells/well. On the following day, 0 μM (no addition), 1 μM, 3 μM, or 10 μM of pimozide or 300 μM of sulfasalazine was added. Subsequently, the cells were incubated for 24 hours, stained with H2DCFDA to visualize intracellular reactive oxygen species, and observed under a fluorescence microscope."}, "OSC19 cells [3]": {"system": "OSC19 cells", "experiment": "Level of reactive oxygen species by H2DCFDA staining, fluorescence microscopy", "type": "cell-based", "conditions": "10 μM, 24 hours, FIG. 6", "description": "Next, change in level of reactive oxygen species by the compounds having a high selectivity to OSC19 was examined. OSC19 cells were seeded onto 24-well glass-bottomed plate at 1×10^5 cells/well, and each compound was added at 10 μM on the following day. Subsequently, the cells were incubated for 24 hours, stained with 2′,7′-dichloro-dihydro-fluorescein-diacetate (H2DCFDA), which is a redox fluorescence indicator, and observed under a fluorescence microscope. In addition, their ability of inducing the reactive oxygen species was evaluated according to the fluorescence intensity. FIG. 6 is fluorescence micrographs of OSC19 cells treated with the compounds given in Table 1, showing the increase in ROS in OSC19 cells scored on 4 rating scales. The “4 rating scales” are as follows."}, "OSC19 cells [4]": {"system": "OSC19 cells", "experiment": "Subcutaneous OSC19 transplant in nude mice, tumor volume and tumor mass", "type": "in vivo", "conditions": "1 mg/kg intraperitoneally once daily from day 5 to day 35 versus saline; FIGS. 9 and 10", "description": "Next, 1×10^6 OSC19 cells were subcutaneously transplanted into nude mice. After 5 days of transplantation, 1 mg/kg of pimozide or saline was intraperitoneally administered once daily to day 35. Short and long axes of each tumor were measured once every 3-4 days and a volume of the tumor was calculated using the following equation. Tumor volume=(long axis×(short axis)^2)/2 Specific tumor volume=tumor volume on the day measured/tumor volume at the beginning of administration Statistic analysis of the tumor volume was performed using Two-way ANOVA. Each tumor was removed after the treatment experiments and the mass of the tumor was measured. Statistic analysis of the tumor mass was performed using a t-test."}, "OSC19 and HSC4 cells [5]": {"system": "OSC19 and HSC4 cells", "experiment": "Cell viability by Celltiter-Glo after 72 hours with pimozide or sulfasalazine", "type": "cell-based", "conditions": "FIGS. 7 and 8; for sensitivity of OSC19 cells versus HSC4 cells (cell viability): pimozide 0.3-100 μM, sulfasalazine 10-1000 μM", "description": "Cell viability was examined for OSC19 and HSC4 cells incubated in a medium supplemented with US077 (pimozide). […] OSC19 and HSC4 cells were seeded in 96-well plates at 3000 cells/well and 2000 cells/well, respectively. On the following day, 0 μM (no addition), 0.3 μM, 1 μM, 3 μM, 10 μM, 30 μM, or 100 μM of pimozide or 0 μM (no addition), 10 μM, 30 μM, 100 μM, 300 μM, or 1000 μM of sulfasalazine were added. Then, the cells were incubated for 72 hours and cell viability was measured using Celltiter-Glo (Promega)."}, "OSC19 cells [6]": {"system": "OSC19 cells", "experiment": "Ratio of H2DCFDA-stained cells to Hoechst33342-stained cells with sertindole or sulfasalazine", "type": "cell-based", "conditions": "10 μM sertindole versus 300 μM sulfasalazine, 24 hours; FIG. 13", "description": "OSC19 cells were seeded onto 24-well glass-bottomed plate at 1×10^5 cells/well and started to be incubated. Two days after the beginning of the incubation, 0.1 μM, 1 μM, or 10 μM of sertindole or 300 μM of sulfasalazine was added. DMSO was added to the control. The cells were then incubated for 24 hours, and 2′,7′-dichloro-dihydro-fluorescein-diacetate (H2DCFDA), which is a redox fluorescence indicator capable of emitting fluorescence when oxidized by reactive oxygen species in cells and Hoechst33342 that stains a cell nucleus were added. A ratio of the number of cells stained with H2DCFDA to the number of cells stained with Hoechst33342 was calculated."}, "OSC19 and HSC4 cells [7]": {"system": "OSC19 and HSC4 cells", "experiment": "Cell viability by Celltiter-Glo after 72-hour incubation with sertindole", "type": "cell-based", "conditions": "sertindole 0.19-45.00 μM, FIG. 12", "description": "OSC19 and HSC4 cells were seeded in 96-well plates at 3000 cells/well and 2000 cells/well, respectively, and started to be incubated. Two days after the beginning of the incubation, 0 μM (no addition), 0.19 μM, 0.56 μM, 1.67 μM, 5.00 μM, 15.00 μM, or 45.00 μM of sertindole was added. After 72-hour incubation, the number of the survived cells was measured using Celltiter-Glo (registered trademark) (Luminescent Cell Viability Assay; Promega). A ratio of the number of the survived cells to the number of the cells on the first day of incubation was calculated as a cell viability value."}, "OSC19": {"system": "OSC19", "experiment": "Combined use of pimozide and sulfasalazine, cell viability by CellTiter-Glo after 72 hours", "type": "cell-based", "conditions": "150 μM of sulfasalazine alone, OSC19, 72 hours", "description": "Oral squamous cell carcinoma cell line, OSC19, was seeded onto 96-well plates at 3000 cells/well. On the following day, a combination of 0 μM (no addition; only DMSO), 1 μM, 2 μM, or 3 μM of pimozide, and 0 μM (no addition; only DMSO), 10 μM, 50 μM, 100 μM, 150 μM, or 200 μM of sulfasalazine was added. Subsequently, cells were incubated for 72 hours, and cell viability was measured using a CellTiter-Glo Luminescent Cell Viability Assay kit (Promega). Effects obtained using pimozide and sulfasalazine at different concentrations are shown in a graph in FIG. 14."}}}
{"compound": "N.N.[Cl][Pt][Cl]", "note": "[cisplatin]", "values": [{"measurement": "sensitivity to cisplatin (cell viability)", "setting": "[1]", "value": "significantly lower in sensitivity to cisplatin"}]}
{"compound": "O=c1[nH]c2ccccc2n1C1CCN(CCCC(c2ccc(F)cc2)c2ccc(F)cc2)CC1", "note": "[pimozide, Pimozide]", "values": [{"measurement": "inductive effect on intracellular accumulation of reactive oxygen species compared with sulfasalazine", "setting": "OSC19 and HSC4 cells [2]; pimozide 1, 3, 10 μM versus sulfasalazine 300 μM", "value": "significantly greater inductive effect on intracellular accumulation of reactive oxygen species at a significantly lower concentration as compared with sulfasalazine"}, {"measurement": "inductive effect on intracellular accumulation of reactive oxygen species, OSC19 versus HSC4", "setting": "OSC19 and HSC4 cells [2]", "value": "inductive effect on intracellular accumulation of reactive oxygen species selectively in OSC19 cells"}, {"measurement": "increase in ROS in OSC19 cells scored on 4 rating scales", "setting": "OSC19 cells [3]", "value": "significantly great increase in ROS level"}, {"measurement": "tumor volume and tumor mass on day 35 (proliferation of OSC19 cells in mice)", "setting": "OSC19 cells [4]", "value": "inhibition of proliferation of the OSC19 cells"}, {"measurement": "inhibitory effect on cell proliferation, concentration compared with sulfasalazine", "setting": "OSC19 and HSC4 cells [5]", "value": "inhibitory effect on cell proliferation at a lower concentration than sulfasalazine"}, {"measurement": "sensitivity of OSC19 cells versus HSC4 cells (cell viability)", "setting": "OSC19 and HSC4 cells [5]", "value": "higher sensitivity to pimozide than the HSC4 cells"}]}
{"compound": "O=C1NCCN1CCN1CCC(c2cn(-c3ccc(F)cc3)c3ccc(Cl)cc23)CC1", "note": "[sertindole, Sertindole]", "values": [{"measurement": "intracellular ROS level (H2DCFDA-stained / Hoechst33342-stained cells) compared with sulfasalazine", "setting": "OSC19 cells [6]", "value": "intracellular ROS level was higher as compared with a case where sulfasalazine was added at 30 times higher concentration"}, {"measurement": "inhibition of cell proliferation, OSC19 versus HSC4 (cell viability)", "setting": "OSC19 and HSC4 cells [7]", "value": "cell proliferation was inhibited by the addition of a lower concentration of sertindole for OSC19 than for HSC4"}]}
{"compound": "Sulfasalazine", "values": [{"measurement": "mortality of cells", "setting": "OSC19", "value": "about 30%"}, {"measurement": "inductive effect on intracellular accumulation of reactive oxygen species, OSC19 versus HSC4", "setting": "OSC19 and HSC4 cells [2]", "value": "selectively in OSC19 cells as in the case of sulfasalazine"}, {"measurement": "sensitivity of OSC19 cells versus HSC4 cells (cell viability)", "setting": "OSC19 and HSC4 cells [5]", "value": "higher sensitivity to sulfasalazine than the HSC4 cells"}]}
